The values that follow come from patent US6727237B2, “Inhibitors of bacterial NAD synthetase” (priority 1998, dated 2004).

Like-named read-outs stand apart in the source and are kept apart here.

Data set [1] addresses T1, bacterial NAD synthetase enzyme (Bacillus subtilis, UniProt P08164).
T1 sequence (P08164 2-272 limits assumed): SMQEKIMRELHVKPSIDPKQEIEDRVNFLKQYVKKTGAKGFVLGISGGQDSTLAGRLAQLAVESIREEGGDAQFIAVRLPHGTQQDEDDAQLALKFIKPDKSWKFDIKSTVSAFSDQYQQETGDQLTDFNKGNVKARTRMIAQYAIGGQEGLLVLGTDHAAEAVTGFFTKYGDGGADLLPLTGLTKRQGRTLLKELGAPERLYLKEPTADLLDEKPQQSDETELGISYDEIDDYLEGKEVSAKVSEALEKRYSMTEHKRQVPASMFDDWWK
In words: biochemical. It counts as biochemical. To be noted: for Km: 0.2 mL Assay (microtiter plate), substrate.

Data set [2] has as its system Staphylococcus epidermitis. In words: Dose response of bacterial growth inhibition, MIC85. Conditions: Staphylococcus, read-out: MIC85.
For data set [3], the system named is Staphylococcus epidermitis. Kind of data set: Bacterial growth inhibition screen in LB media (absorbance 595 nm), percent inhibition. Conditions: for % Inhibition: S. epidermitis.
For data set [4], the system named is K562 human myeloid cell line. Kind of data set: In vitro toxicity in human cells, propidium iodide flow cytometry, minimum toxic concentration. On the procedure:
The final concentration of DMSO was less than 5%, and a DMSO control was included. The mixtures were incubated at doubling dilutions (approximately 1000 μM-10 μM range) of inhibitor for 15 hours at 37° C. At this time propidium iodide was added (1 μg/mL) and the mixture incubated at 30 min. at 4° C. The cells were washed once with medium, centrifuged, and resuspended in 2% bovine serum albumin/phosphate-buffered saline. The cell suspension was then run through a FAC Saliber flow cytometer and approximately 5000 cells were counted. The proportion of dead (stained) cells was determined, and the percent of live cells was expressed as % controls.
On the technique in general: Flow cytometry measures light scatter and fluorescence of single cells or particles in a stream.

In data set [5] the test system is B. subtilis. In words: Dose response of bacterial growth inhibition, MIC85. To be noted: Bacillus subtilis, read-out: MIC85.
The target in data set [6] is T1, bacterial NAD synthetase enzyme. To be noted: 2 mL Assay (cuvette); substrate; double reciprocal plots.
The subject of data set [7] is Streptococcus pneumonia D39. In words: Standard antibiotic paper disk assay, zone of inhibition. It counts as cell-based, Streptococcus pneumoniae. To be noted: 250 μg on 6 or 7 mm paper disk; blood agar plate; gram +. As for the experimental part: (§1) To determine initially if a compound found active in the assays, Compound 864, was also an effective inhibitor of a variety of different bacteria, a standard antibiotic assay was performed. In this assay 250 μg of Compound 864 ([…] in DMSO) was spotted on 6 or 7 mm paper disks. Each disk was placed on separate 30 ml solid-medium plates layered with bacteria Blood agar plates were used for Streptococcus, and minimal-glucose plates were used for the other microorganisms in Table 306. DMSO controls provided negative results.

Data set [8] deals with Escherichia coli K-12 W3110 (CGSC#4474). The description is as above. To be noted: 250 μg on 6 or 7 mm paper disk; minimal-glucose plate; gram −. It counts as cell-based. As for the experimental part: as §1
Data set [9] concerns Bacillus subtilis A700. Described as above. It counts as cell-based. Conditions: 250 μg on 6 or 7 mm paper disk; minimal-glucose plate; gram +. On the procedure: as §1
Data set [10] deals with Streptococcus pneumoniae WU2. The data set is described as above. To be noted: 250 μg on 6 or 7 mm paper disk; blood agar plate; gram +. It counts as cell-based. As for the experimental part:
as §1

Data set [11] has as its system Escherichia coli K-12 MG1655 (CGSC#6300). The description is as above. It counts as cell-based. To be noted: 250 μg on 6 or 7 mm paper disk; minimal-glucose plate; gram −. As for the experimental part:
as §1

Data set [12] has as its system Salmonella typhimurium LT2 TT366. Described as above. It counts as cell-based. Conditions: 250 μg on 6 or 7 mm paper disk; minimal-glucose plate; gram −. On the procedure: as §1
Substrate in data set [13]: Nc1ncnc2c1ncn2[C@@H]1O[C@H](COP(=O)(O)OP(=O)(O)OP(=O)(O)O)[C@@H](O)[C@H]1O
In words: purified protein, by the assay type. Conditions: substrate, pH 8.5.

Setting [14] is: Staphylococcus, read-out: % Inhibition, S. epidermitis, concentration screened 100 uM.
The mark [15] stands for this setting: K562 human myeloid cells, 15 hours at 37° C., propidium iodide.
Where [16] appears, read: compound at 0.2 mM (Table 312A).
Setting [17] is: lead compounds (Table 318A), read-out: IC 50.
[18] abbreviates: other: 2 mL Assay (cuvette), double reciprocal plots.

Turning to `COC(=O)C=Cc1cn(CCCCCCCCC[n+]2cccc(C(=O)OC)c2)c2ccccc12` [Compound 270], the IC50 in data set [1] stood at 60 µM. Besides, the MIC in data set [2] is 10 µM. For the same molecule, the inhibition of growth at 10 µM in data set [3] (Staphylococcus, read-out: % Inhibition, S. epidermitis, concentration screened 10 uM) worked out at 97.5%. For the same molecule, the “Minimum Toxic Dose” value in [4] (human, 15 h) was 200 µM.

In the case of `COC(=O)c1cc2ccccc2n1CCCCCCCCOC(=O)Cc1ccc([N+](C)(C)C)cc1` [Compound 985], in [5], the MIC came to 10 µM. In data set [1], the IC50 worked out at 15 µM and the inhibition at 50 µM was 92.1%.

For the molecule `C[N+](C)(C)c1ccc(CC(=O)OCCCCCCCCn2ccc3cc(OCc4ccccc4)ccc32)cc1` [Compound 749], the MIC in [5] amounted to 3 µM; in [2], 10 µM. Further, in data set [1], the IC50 was 25 µM. In addition, the inhibition at 100 µM in data set [1] amounted to 98.2%. For the same molecule, in [3] (setting [14]), the inhibition of growth at 100 µM is 98.7%.

As to `COC(=O)c1cc2ccccc2n1CCCCCCOC(=O)c1cccnc1` [Compound 947], the “Minimum Toxic Dose” value in data set [4] (setting [15]) was found to be 200 µM.

For `COC(=O)c1cc2ccccc2n1CCCCCCCCOC(=O)c1cccnc1` [Compound 949], the “Minimum Toxic Dose” value in data set [4] (setting [15]) came to 200 µM.

Turning to `COC(=O)c1cc2cc(OCc3ccccc3)ccc2n1CCCCCCOC(=O)c1cccnc1` [Compound 951], the “Minimum Toxic Dose” value in data set [4] (setting [15]) amounted to 500 µM.

Consider `COC(=O)c1cc2cc(OCc3ccccc3)ccc2n1CCCCCCCCC[n+]1ccccc1` [Compound 230], for which the MIC worked out at 10 µM in [5] and 3 µM in data set [2]. In addition, in data set [1], at 100 µM the inhibition was 93.1%. For the same molecule, in [3] (setting [14]), the inhibition of growth at 100 µM is 95.5%.

`COC(=O)c1cc2cc(OCc3ccccc3)ccc2n1CCCCCCCOC(=O)Cc1ccc([N+](C)(C)C)cc1` [Compound 988]: the MIC in [5] came to 10 µM. This molecule registered an inhibition at 100 µM in [1] of 84.3%.

As to `COC(=O)c1cc2ccccc2n1CCCCCCCOC(=O)c1cccnc1` [Compound 948], in data set [1] (compound at 0.05 mM), the “% Inhibition” value stood at 2.52%. Moreover, the “Minimum Toxic Dose” value in data set [4] (setting [15]) came to 200 µM.

In [1], `CC(=O)c1ccc2[nH]c(CCCCCCCCOC(=O)Cc3ccc[n+](C)c3)cc2c1` [Compound 939] yielded an IC50 of 25 µM and an inhibition at 250 µM of 97.8%. For the same molecule, the “Minimum Toxic Dose” value in data set [4] (human, 15 h) worked out at 500 µM.

`Fc1cc(F)c2[nH]c(CCCC[n+]3cccc4ccccc43)cc2c1` [Compound 409]: the “% Inhibition” value in [1] (setting [16]) was determined as 19.02%; in data set [3] (concentration screened 10 uM), 2.44%. For the same molecule, the “Minimum Toxic Dose” value in data set [4] (setting [15]) is 200 µM.

For `COC(=O)c1cc2cc(OCc3ccccc3)ccc2n1CCCCCCCCCOC(=O)Cc1ccc([N+](C)(C)C)cc1` [Compound 990], the MIC in data set [5] is 10 µM. In data set [1], this molecule had an IC50 of 20 µM and an inhibition at 200 µM of 92.2%.

Consider `[Mg+2]` [Mg^+2, magnesium], for which, in data set [6], the Km came to 2600 µM and the Vmax is 120 nM/s. Besides, the Km in data set [1] came to 2900 µM.

Take `COC(=O)c1cc2ccccc2n1CCCCCCCOC(=O)Cc1ccc([N+](C)(C)C)cc1` [Compound 984]: the MIC in data set [5] was 30 µM. In data set [1], this molecule had an IC50 of 20 µM and an inhibition at 50 µM of 87.5%.

As for `C[n+]1cccc(C(=O)OCCCCCn2ccc3cc([N+](=O)[O-])ccc32)c1` [Compound 864], the “% Inhibition” value in data set [1] (setting [16]) was 19.33%; in [3] (concentration screened 100 uM) it was 87.03%. The “ZONE OF INHIBITION” value in data set [7] amounted to 12 mm; in [8], 9.5 mm; in [9] it was 19.5 mm; in data set [10] it was 15 mm; in [11] it was 9.5 mm; in data set [12], 10 mm.

Consider `N` [NH3, ammonia], for which, in [6], the Km turned out to be 2880 µM and the Vmax came out at 137 nM/s.

In the case of `Nc1ncnc2c1ncn2[C@@H]1O[C@H](COP(=O)(O)OP(=O)(O)OC[C@H]2O[C@@H]([n+]3cccc(C(=O)O)c3)[C@H](O)[C@@H]2O)[C@@H](O)[C@H]1O` [NaAD, nictonic acid dinucleotide, reference compound], in data set [6], the Michaelis-Menten constant (Km) worked out at 75 µM and the Vmax stood at 286 nM/s. The Km in data set [1] is 76 µM.

As to `COC(=O)c1cc2cc(OCc3ccccc3)ccc2n1CCCCCCCCOC(=O)c1ccc[n+](C)c1` [Compound 977], the MIC in [5] was determined as 10 µM. Moreover, in [1], the IC50 came to 10 µM and 100 µM produced 87.6% inhibition.

For `O=C(O)C=Cc1cn(CCCCCCCCC[n+]2cccc(C(=O)[O-])c2)c2ccccc12` [Compound 274], the “Minimum Toxic Dose” value in data set [4] (setting [15]) came to 300 µM.

In the case of `C[n+]1cccc(C(=O)OCCCCCCCCn2ccc3cc(OCc4ccccc4)ccc32)c1` [Compound 769], the MIC in data set [5] was found to be 3 µM; in [2], 10 µM. The inhibition at 100 µM in data set [1] was 98.3%. Besides, the IC50 in data set [1] (setting [17]) came out at 20 µM. Further, in data set [3] (setting [14]), the inhibition of growth at 100 µM was 95.9%.

Take `COC(=O)c1cc2ccccc2n1CCCCCCCCCOC(=O)Cc1ccc([N+](C)(C)C)cc1` [Compound 986]: in data set [5], the MIC turned out to be 10 µM. Also, in [1], the inhibition at 50 µM was 30.8%. In data set [1] (setting [17]), the IC50 amounted to 10 µM.

Turning to `COC(=O)c1cc2cc(OCc3ccccc3)ccc2n1CCCCCCCOC(=O)c1ccc[n+](C)c1` [Compound 976], the MIC in [5] came to 10 µM. Besides, in data set [1], the IC50 was determined as 20 µM and at 100 µM the inhibition was 71%.

Regarding `COC(=O)c1cc2cc(OCc3ccccc3)ccc2n1CCCCCCCCOC(=O)c1cccnc1` [Compound 953], in [4] (setting [15]), the “Minimum Toxic Dose” value was 100 µM.

B1: bacterial NAD synthetase enzyme (Bacillus subtilis subsp. subtilis str. 168) (protein)
chain: SMQEKIMRELHVKPSIDPKQEIEDRVNFLKQYVKKTGAKGFVLGISGGQDSTLAGRLAQLAVESIREEGGDAQFIAVRLPHGTQQDEDDAQLALKFIKPDKSWKFDIKSTVSAFSDQYQQETGDQLTDFNKGNVKARTRMIAQYAIGGQEGLLVLGTDHAAEAVTGFFTKYGDGGADLLPLTGLTKRQGRTLLKELGAPERLYLKEPTADLLDEKPQQSDETELGISYDEIDDYLEGKEVSAKVSEALEKRYSMTEHKRQVPASMFDDWWK
With B1, the Km in data set [13] (other: 0.2 mL Assay (microtiter plate)) turned out to be 152 µM. In addition, in data set [13] (setting [18]), the Km was determined as 120 µM and the Vmax was found to be 436 nM/s.

The term inhibition denotes the share of the control response that was lost under treatment. Read a high inhibition as strong suppression. A word on the % Inhibition: it is the percentage by which the read-out fell short of the control. Broadly, the Km is the concentration of substrate that gives half-maximal velocity. A word on the Vmax: it is the rate approached at saturating substrate.
